In the Kinase Knowledgebase extract (Sharma et al. 2016):
Values joined by “and” are separate entries in the source; they are usually repeats but may differ in a detail not shown here. Equal entries are not always repeated.

Target: MAPK14 (UniProt Q16539)
Test: Inhibition of MAPK14 Kinase Activity

Chain of MAPK14 (Q16539 whole entry, looked up): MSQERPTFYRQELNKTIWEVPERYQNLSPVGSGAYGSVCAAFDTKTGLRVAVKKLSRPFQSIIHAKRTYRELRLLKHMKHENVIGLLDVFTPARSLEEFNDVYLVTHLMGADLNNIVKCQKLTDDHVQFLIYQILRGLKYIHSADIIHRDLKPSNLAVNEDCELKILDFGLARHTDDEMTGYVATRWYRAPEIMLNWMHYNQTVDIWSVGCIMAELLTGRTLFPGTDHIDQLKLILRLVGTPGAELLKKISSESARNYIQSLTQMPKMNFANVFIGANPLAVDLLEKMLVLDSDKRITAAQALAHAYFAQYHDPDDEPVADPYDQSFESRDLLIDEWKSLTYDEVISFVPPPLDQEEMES

Compound	IC50
COc1ccc(CNc2nccc(-c3[nH]c(-c4ccccc4)nc3-c3ccccc3)n2)cc1	38 nM
c1ccc(-c2ccc(-c3nc(-c4ccccc4)[nH]c3-c3ccncc3)cc2)cc1	1000 nM
Fc1ccc(-c2nc(C3CCNCC3)[nH]c2-c2ccncc2)cc1	8 nM
Clc1ccc(-c2nc(-c3ccccc3)[nH]c2-c2ccncc2)cc1	47 nM
Oc1ccc(-c2nc(-c3ccccc3)[nH]c2-c2ccncc2)cc1	1410 nM
Nc1nccc(-c2[nH]c(-c3ccccc3)nc2-c2ccccc2)n1	38 nM
Fc1cccc(-c2nc(-c3ccccc3)[nH]c2-c2ccncc2)c1	489 nM
c1ccc(-c2nc(-c3ccccc3)c(-c3ccncn3)[nH]2)cc1	707 nM
FC(F)(F)c1cccc(-c2nc(-c3ccccc3)[nH]c2-c2ccncc2)c1	85 nM
Fc1ccc(-c2nc(C3CCCCC3)[nH]c2-c2ccncc2)cc1	70 nM
CC(C)c1nc(-c2ccccc2)[nH]c1-c1ccncc1	2090 nM
FC(F)(F)c1ccc(-c2nc(-c3ccccc3)[nH]c2-c2ccncc2)cc1	199 nM
C[C@@H](Nc1nccc(-c2[nH]c(C3CCNCC3)nc2-c2cccc(C(F)(F)F)c2)n1)c1ccccc1	0.9 nM
N#Cc1ccc(-c2nc(-c3ccccc3)[nH]c2-c2ccncc2)cc1	977 nM
COc1cccc(-c2nc(-c3ccccc3)[nH]c2-c2ccncc2)c1	549 nM
Oc1cccc(-c2nc(-c3ccccc3)[nH]c2-c2ccncc2)c1	141 nM
COc1ccc(CNc2nccc(-c3[nH]c(C4CCNCC4)nc3-c3cccc(C(F)(F)F)c3)n2)cc1	7 nM
c1ccc(-c2nc(-c3ccccc3)c(-c3ccncc3)[nH]2)cc1	181 nM
Clc1ccc(-c2nc(-c3ccccc3)[nH]c2-c2ccncc2)cc1Cl	28 nM
Clc1ccccc1-c1nc(-c2ccccc2)[nH]c1-c1ccncc1	151 nM
Nc1nccc(-c2[nH]c(C3CCNCC3)nc2-c2cccc(C(F)(F)F)c2)n1	7 nM
Fc1ccc(-c2nc[nH]c2-c2ccncc2)cc1	169 nM
C[C@H](Nc1nccc(-c2[nH]c(C3CCNCC3)nc2-c2cccc(C(F)(F)F)c2)n1)c1ccccc1	0.7 nM and 0.1 nM
Clc1cc(Cl)cc(-c2nc(-c3ccccc3)[nH]c2-c2ccncc2)c1	138 nM
CNc1nccc(-c2[nH]c(-c3ccccc3)nc2-c2ccccc2)n1	120 nM
Clc1cccc(-c2nc(-c3ccccc3)[nH]c2-c2ccncc2)c1	128 nM
COc1ccc(-c2nc(-c3ccccc3)[nH]c2-c2ccncc2)cc1	301 nM
